Measured values from patent publication EP0490590A1, “New benzodiazepine analogs” (MERCK & CO. INC., priority 1990, dated 1992).

Key:
CCK receptor (pancreas) = molecular target: T1, CCK receptor (pancreas) (Rattus norvegicus, UniProt P30551); experiment: CCK Receptor Binding (Pancreas), 125I-CCK-33; details: inhibition of 125I-CCK-33 binding, rat pancreas membranes, 37°C, 30 minutes
T1 construct: The whole pancreas was dissected free of fat tissue and was homogenized; from tissue; host or cells: rat whole pancreas membrane homogenate
T1 sequence (P30551 1-444): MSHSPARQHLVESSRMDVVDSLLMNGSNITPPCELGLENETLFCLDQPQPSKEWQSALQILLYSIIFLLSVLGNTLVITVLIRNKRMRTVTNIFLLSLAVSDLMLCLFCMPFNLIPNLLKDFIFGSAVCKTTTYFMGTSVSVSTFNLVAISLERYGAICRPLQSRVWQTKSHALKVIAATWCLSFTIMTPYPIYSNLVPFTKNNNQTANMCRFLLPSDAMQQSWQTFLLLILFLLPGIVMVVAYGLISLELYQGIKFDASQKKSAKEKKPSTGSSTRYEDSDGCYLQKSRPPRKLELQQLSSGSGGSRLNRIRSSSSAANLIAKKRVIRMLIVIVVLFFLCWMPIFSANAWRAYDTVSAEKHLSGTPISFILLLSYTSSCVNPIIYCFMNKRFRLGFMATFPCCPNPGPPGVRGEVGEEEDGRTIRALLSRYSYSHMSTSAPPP
Method: 1. CCK Receptor Binding (Pancreas)
CCK-33 was radiolabeled with ¹²⁵I-Bolton Hunter reagent (2000 Ci/mmole) as described by Sankara et al. (J. Biol. Chem. 254: 9349-9351, 1979). Receptor binding was performed according to Innis and Snyder (Proc. Natl. Acad. Sci. 77, 6917-6921, 1980) with the minor modification of adding the additional protease inhibitors, phenylmethane sulfonyl fluoride and o-phenanthroline. The latter two compounds have no effect on the ¹²⁵I-CCK receptor binding assay.
Male Sprague-Dawley rats (200-350g) were sacrificed by decapitation. The whole pancreas was dissected free of fat tissue and was homogenized in 20 volumes of ice-cold 50 mM, Tris HCl (pH 7.7 at 25°C) with a Brinkmann Polytron PT 10. The homogenates were centrifuged at 48,000 g for 10 min. Pellets were resuspended in Tris Buffer, centrifuged as above and resuspended in 200 volumes of binding assay buffer (50 mM Tris HCl, pH 7.7 at 25°C, 5 mM dithiothrietol, 0.1 mM bacitracin, 1.2 mM phenylmethane sulfonyl fluoride and 0.5 mM o-phenanthroline). […] The supernatant was aspirated and discarded, pellets were counted with a Beckman gamma 5000. […]

[1] = molecular target: T2, CCK receptor (brain, cerebral cortex) (Cavia porcellus, UniProt H0VZC5); experiment: CCK Receptor Binding (Brain), 125I-CCK-33; details: inhibition of 125I-CCK-33 binding, guinea pig cerebral cortex membranes, 25°C, 2 hours
T2 construct: Cerebral cortex was dissected and used as a receptor source; from tissue; host or cells: guinea pig cerebral cortex membranes
Method: 2. CCK Receptor Binding (Brain)
CCK-33 was radiolabeled and the binding was performed according to the description for the pancreas method with modifications according to Saito et al., J. Neurochem. 37:483-490, 1981.
Male Hartley guinea pigs (300-500g) were sacrificed by decapitation and the brains were removed and placed in ice-cold 50 mM, Tris HCl plus 7.58 g/l Trizma-7.4 (ph 7.4 at 25°C). Cerebral cortex was dissected and used as a receptor source. Each gram of fresh guinea pig brain tissue was homogenized in 10 ml of Tris/Trizma buffer with a Brinkman polytron PT-10. The homogenates were centrifuged at 42,000 g for 15 minutes. Pellets were resuspended in Tris Buffer, centrifuged as above and resuspended in 200 volumes of binding assay buffer (10 mM N-2-hydroxyethyl-piperazine-N′-2-ethane sulfonic acid (HEPES), 5 mM MgCl₂, 0.25 mg/ml bacitracin, 1 mM ethylene glycol-bis-(β-aminoethylether-N,N′-tetraacetic acid) (EGTA), and 0.4% bovine serum albumin (BSA)). […] The supernatant was aspirated and discarded, pellets were counted with a Beckman gamma 5000.

T2 sequence (H0VZC5 entry or part of it): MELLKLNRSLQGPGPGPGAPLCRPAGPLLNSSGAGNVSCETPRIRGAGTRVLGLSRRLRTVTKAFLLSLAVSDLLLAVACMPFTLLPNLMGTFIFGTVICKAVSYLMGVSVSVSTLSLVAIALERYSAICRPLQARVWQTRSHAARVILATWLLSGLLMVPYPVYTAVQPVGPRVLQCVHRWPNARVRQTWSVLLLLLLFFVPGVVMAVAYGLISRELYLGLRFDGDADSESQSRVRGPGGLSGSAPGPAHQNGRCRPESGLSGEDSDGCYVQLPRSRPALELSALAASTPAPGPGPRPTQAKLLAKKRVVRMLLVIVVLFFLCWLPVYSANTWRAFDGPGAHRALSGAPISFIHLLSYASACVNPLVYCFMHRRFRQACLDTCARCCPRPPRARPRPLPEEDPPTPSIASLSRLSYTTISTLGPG

CN1C(=O)C(NC(=O)c2cc3cc(O)ccc3[nH]2)N=C(c2ccccc2)c2ccccc21 (centres unmarked) [Example 15, 1,3-Dihydro-3-(5-hydroxyindole-2-carbonylamino)-1-methyl-5-phenyl-2H-1,4-benzodiazepin-2-one]
IC50 (CCK receptor (pancreas)): 0.0033 µM
IC50 [1]: 0.91 µM
